# In patent US11273152B2, “TRPV2 antagonists” (Instituto de Medicina Molecular João Lobo Antunes, priority 2017, dated 2022):
# “Also recorded” adds a separate entry of the source. Like-named read-outs stand apart in the source and are kept apart here.
# Legend:
# [1] = biological target: T1, TRPV2 (Homo sapiens, UniProt Q9Y5S1); assay: Manual patch-clamp assay, hTRPV2 stable HEK-293 cells; format: cell-based; details: n=2; for IC50: read-out: IC50 against TRPV2, patch-clamp assay
# T1 sequence (Q9Y5S1 1-764): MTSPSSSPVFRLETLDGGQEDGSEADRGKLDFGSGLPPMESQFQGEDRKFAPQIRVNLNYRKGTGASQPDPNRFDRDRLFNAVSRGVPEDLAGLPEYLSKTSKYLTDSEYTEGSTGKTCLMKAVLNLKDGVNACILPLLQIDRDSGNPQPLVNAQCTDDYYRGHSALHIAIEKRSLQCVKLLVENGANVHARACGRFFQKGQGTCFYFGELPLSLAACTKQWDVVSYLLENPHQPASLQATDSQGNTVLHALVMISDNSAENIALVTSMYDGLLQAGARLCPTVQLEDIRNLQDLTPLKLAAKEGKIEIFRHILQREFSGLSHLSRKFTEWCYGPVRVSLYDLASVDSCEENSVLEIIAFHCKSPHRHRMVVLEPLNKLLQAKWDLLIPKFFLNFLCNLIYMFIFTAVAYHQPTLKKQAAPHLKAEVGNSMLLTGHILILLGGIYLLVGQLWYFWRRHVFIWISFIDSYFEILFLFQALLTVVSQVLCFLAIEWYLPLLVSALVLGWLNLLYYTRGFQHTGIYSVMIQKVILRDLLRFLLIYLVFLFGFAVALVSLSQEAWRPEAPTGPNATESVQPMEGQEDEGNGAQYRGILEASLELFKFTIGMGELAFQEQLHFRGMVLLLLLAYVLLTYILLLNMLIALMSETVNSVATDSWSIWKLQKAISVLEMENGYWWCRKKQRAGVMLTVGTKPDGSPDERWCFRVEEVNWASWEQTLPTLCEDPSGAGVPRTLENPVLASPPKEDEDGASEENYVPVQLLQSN
# Protocol: The assays were performed at SB Discovery (Glasgow, UK) on a fee-for-service basis. Concentration-response curves and washout assays were performed using a manual patch clamp method. HEK-293 cells were grown and prepared, according to the adapted procedure for hTRPV2 stable cell lines at SB Discovery. Cells were serum starved for approximately 24 hours and then changed to serum-containing media prior to electrophysiology testing. The manual patch-clamp assay was carried out at room temperature using a traditional electrophysiological unit. Cells were used within 2-3 hours after addition of serum containing media to the cells. The standard extracellular solution contained 145 mM NaCl, 4 mM KCl, 2 mM CaCl2, 1 mM MgCl2, 10 mM HEPES and 10 mM glucose. The pH was adjusted to 7.4 with NaOH, and the osmolarity was measured as 311 mOsm/L. The standard intracellular solution contained 50 mM KCl, 10 mM NaCl, 60 mM KF, 2 mM MgCl2, 20 mM EGTA and 10 mM HEPES. The pH was adjusted to 7.2 with KOH and the osmolarity was measured as 286 mOsm/L. A standard ramp protocol was used to monitor currents upon addition of control (extracellular solution) and compound solutions. The voltage protocol consisted of a series of voltage ramps from −100 mV to +100 mV, every 5 seconds, from a holding potential of −60 mV. The maximum outward current values during the recordings at +100 mV were used for analysis. Manual patch clamp experiments were carried out using an Axon 200B amplifier and a Digidata 1440A acquisition system from Axon Instruments (Molecular Devices, USA). The software program pClamp (version 10) from Axon Instruments was used to stimulate and record electrical activity. Capacitative transients were compensated electronically from the recordings, however the voltage drop across the series resistance and the liquid junction potential were not compensated. The series resistance was generally less than 10 MΩ, with a mean cell capacity of approximately 25 pF. The GraphPad Prism (version 5) software was used to analyze and plot all graphs. The agonist (cannabidiol; Abcam #ab120448) was prepared as 100 mM stock in 100% DMSO and diluted to 4 μM or 10 μM in physiological solution prior to testing. Piperlongumine was prepared as 100 mM stock in 100% DMSO and diluted to the specified concentrations in physiological solution (100, 50, 10, 1 and 0.1 μM), also containing 4 μM or 10 μM cannabidiol. Ruthenium red (Sigma, #R2751) was prepared daily as 10 mM stock ion distilled water and diluted to 100 μM in physiological solution.
# [2] = biological target: TRPM8 (Homo sapiens, UniProt Q7Z2W7); assay: Fluorescence cell-based assay, TRPM8; details: calcium 5 dye, duplicate
# Protocol: The assays were performed at SB Discovery (Glasgow, UK) on a fee-for-service basis. Human TRP cells were trypsinised, counted and seeded in black, clear-bottomed 96 well plates at a density of 50,000 cells per well in 100 μL volume and incubated overnight. Next day, the cells were loaded with calcium 5 dye or membrane potential dye. TRPV1-5, TRPA1, TRPM2, TRPM3, and TRPM8 were tested using the calcium 5 dye. TRPC1, TRPC3-7, and TRPM4-5 were tested using the membrane potential dye. Both dye solutions were made up in HEPES buffered Hank's balanced salt solution (HBSS). Dye solution (90 μL) was added to the wells and incubated at 37° C. for 1 hour. Test compounds and standard inhibitors (10 μL) were then added to the wells and incubated at room temperature for 10 minutes. The plates were then placed in the flexstation and fluorescence monitored every 1.52 seconds. After 20 seconds agonist was added and the fluorescence monitored for 2 minutes at 485 nm/525 nm and 530 nm/565 nm, Ex/Em, for the calcium 5 dye and the membrane potential dye respectively. Controls-TRPV1: capsazepine; TRPV2: tranilast; TRPV3: ruthenium red; TRPV4: ruthenium red; TRPV5: Gd^3+; TRPA1, ruthenium red; TRPC1: Gd^3+; TRPC3: Pyr3; TRPC4: ML 204; TRPC5: ML 204; TRPC6: ML 204; TRPC7: SKF 96365; TRPM2: 2-APB; TRPM3: Mef acid; TRPM4: clotrimazole; TRPM5: TPPO; TRPM8: 2-APB. […]
# Chain of TRPM8 (Q7Z2W7 whole entry): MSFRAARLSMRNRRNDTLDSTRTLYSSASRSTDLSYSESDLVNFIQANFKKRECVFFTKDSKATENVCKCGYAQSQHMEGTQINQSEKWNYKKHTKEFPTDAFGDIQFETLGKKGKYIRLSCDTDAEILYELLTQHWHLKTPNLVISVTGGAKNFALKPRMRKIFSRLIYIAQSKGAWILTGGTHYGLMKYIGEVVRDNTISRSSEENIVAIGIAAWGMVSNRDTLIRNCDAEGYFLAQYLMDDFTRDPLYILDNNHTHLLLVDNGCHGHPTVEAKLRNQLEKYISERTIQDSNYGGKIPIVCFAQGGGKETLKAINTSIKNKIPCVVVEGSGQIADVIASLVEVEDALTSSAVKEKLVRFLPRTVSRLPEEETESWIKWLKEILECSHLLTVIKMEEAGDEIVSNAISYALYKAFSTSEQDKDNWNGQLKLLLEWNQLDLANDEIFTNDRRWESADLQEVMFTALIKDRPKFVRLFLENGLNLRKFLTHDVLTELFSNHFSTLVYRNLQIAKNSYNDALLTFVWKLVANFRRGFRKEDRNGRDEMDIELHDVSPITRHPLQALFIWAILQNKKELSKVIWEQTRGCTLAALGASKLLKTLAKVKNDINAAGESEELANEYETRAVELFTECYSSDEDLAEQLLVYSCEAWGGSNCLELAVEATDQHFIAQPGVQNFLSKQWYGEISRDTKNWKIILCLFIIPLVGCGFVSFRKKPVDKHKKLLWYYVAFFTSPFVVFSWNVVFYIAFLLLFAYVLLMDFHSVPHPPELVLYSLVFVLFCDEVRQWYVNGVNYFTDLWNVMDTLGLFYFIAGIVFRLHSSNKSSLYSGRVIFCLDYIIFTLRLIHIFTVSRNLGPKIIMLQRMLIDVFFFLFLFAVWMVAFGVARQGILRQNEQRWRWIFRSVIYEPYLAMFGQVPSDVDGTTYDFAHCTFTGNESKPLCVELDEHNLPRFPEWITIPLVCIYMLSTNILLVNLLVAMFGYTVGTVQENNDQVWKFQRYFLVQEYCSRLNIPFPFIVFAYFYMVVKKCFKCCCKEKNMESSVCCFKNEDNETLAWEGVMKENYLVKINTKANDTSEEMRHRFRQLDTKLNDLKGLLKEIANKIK
structure (smiles),measurement,setting,value
"COc1cc(/C=C/C(=O)N2CCC=CC2=O)cc(OC)c1OC [Compound 1, piperlongumine]",TRPV2 activity after washout (reversibility),"[1]; 1 at 100 μM, CBD 4 μM",fully restored upon washout; also recorded: full TRPV2 activity can be reinstated
same,IC50,"[1]; stimulus: 4 μM CBD, spread in log units",1 µM
same,IC50,[1]; stimulus: 10 μM CBD,> 100 µM
same,IC50,[2],> 100 µM
